Test results: patent US10966426B2, “Herbicidal compositions comprising phenylpyrimidines” (BASF SE, priority 2016, dated 2021)
Values joined by “and” are separate entries in the source; they are usually repeats but may differ in a detail not shown here. Equal entries are not always repeated.

How the values were obtained:
Type in all cases: in vivo
[1] = test system: Alopecurus myosuroides; assay: greenhouse pre-emergence treatment, ALOMY; settings: 20 DAT
Outline: (§1)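 Seeds were sown per species in pots of loamy sand with about 3.0% humus, sprayed with the aqueous spray liquor directly after sowing, watered and hooded until rooted, then kept at 10-25° C. or 20-35° C. for 2 to 4 weeks. Damage was scored 0 (none) to 100 (no emergence/complete destruction).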

[2] = test system: Papaver rhoeas; assay: greenhouse pre-emergence treatment, PAPRH
Outline: as §1

[3] = test system: Polygonum convolvulus; assay: greenhouse pre-emergence treatment, POLCO
Outline: as §1

[4] = test system: Setaria viridis; assay: greenhouse pre-emergence treatment, SETVI
Outline: as §1

[5] = test system: Stellaria media; assay: greenhouse pre-emergence treatment, STEME
Outline: as §1

[6] = test system: Echinocloa crus-galli; assay: greenhouse pre-emergence treatment, ECHCG
Outline: as §1

[7] = test system: Apera spica-venti; assay: greenhouse pre-emergence treatment, APESV
Outline: as §1

[8] = test system: Alopecurus myosuroides; assay: greenhouse post-emergence treatment, ALOMY
Outline: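 Seeds sown per species in loamy sand substrate (about 3.0% humus); some raised separately and transplanted shortly before treatment. Treatments applied in water post-emergence, plants held at 10-25° C. or 20-35° C. by species, then scored after 2 to 4 weeks, where 100 means total kill and 0 no damage.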

[9] = 20 DAT, Ex. 26 solo 31.25 gai/ha
[10] = 20 DAT, Ex. 26 solo 62.5 gai/ha
[11] = 20 DAT, solo Ex. 26 62.5 gai/ha
[12] = Ex. 26 solo 31.25 gai/ha, 20 DAT
[13] = Ex. 26 solo 62.5 gai/ha, 20 DAT
[14] = Ex. 26 solo, 31.25 gai/ha, 20 DAT
[15] = Ex. 26 solo, 62.5 gai/ha, 20 DAT
[16] = Ex. 26 solo, 125 gai/ha, 20 DAT

Measured: % activity

COC(=O)c1nc(C2CC2)ncc1-c1ccc(F)cc1Cl [Ex. 26]
25%: [4]; Ex. 26 solo 250 gai/ha, 21 DAT, SETVI
30%: [2]; 20 DAT, Ex. 26 solo 125 gai/ha | [3]; 20 DAT, POLCO, Ex. 26 solo 250 gai/ha | [3]; POLCO, Ex. 26 solo 250 gai/ha, 20 DAT | [5]; [11] | [5]; Ex. 26 solo 125 gai/ha, 21 DAT
70%: [6]; [13] | [7]; 20 DAT, solo Ex. 26 125 gai/ha (Table X68) | [7]; [16]
35%: [4]; SETVI, Ex. 26 solo 250 gai/ha, 20 DAT
60%: [1]; Ex. 26 solo 62.5 gai/ha | [1]; Ex. 26 solo, 31.25 gai/ha | [6]; [11]
90%: [5]; 20 DAT, Ex. 26 solo 250 gai/ha | [6]; 20 DAT, Ex. 26 solo 125 gai/ha | [6]; Ex. 26 solo 125 gai/ha, 20 DAT | [7]; 20 DAT, Ex. 26 solo 125 gai/ha
65%: [7]; Ex. 26 solo 125 gai/ha, 20 DAT | [8]; 20 DAT, ALOMY, Ex. 26 solo 62.5 gai/ha | [8]; 21 DAT, Ex. 26 solo 125 gai/ha
0%: [2]; [9] | [2]; [10] | [2]; [11] | [2]; [12] | [2]; [13] | [2]; [14] | [2]; [15] | [2]; [16] | [3]; [10] | [3]; 20 DAT, Ex. 26 solo 125 gai/ha | [3]; 20 DAT, POLCO, Ex. 26 solo 31.25 gai/ha | [3]; 20 DAT, POLCO, Ex. 26 solo 62.5 gai/ha | [3]; 20 DAT, POLCO, Ex. 26 solo 125 gai/ha | [3]; Ex. 26 solo 62.5 gai/ha, 20 DAT, POLCO | [3]; Ex. 26 solo 125 gai/ha, 20 DAT, POLCO | [3]; Ex. 26 solo, 62.5 gai/ha, 20 DAT, POLCO | [3]; Ex. 26 solo, 125 gai/ha, 20 DAT, POLCO | [3]; POLCO, 20 DAT, solo Ex. 26 62.5 gai/ha | [3]; POLCO, 20 DAT, solo Ex. 26 125 gai/ha | [3]; POLCO, Ex. 26 solo 125 gai/ha, 20 DAT | [4]; [9] | [4]; [10] | [4]; Ex. 26 solo 62.5 gai/ha, 20 DAT, SETVI | [4]; Ex. 26 solo 62.5 gai/ha, 21 DAT, SETVI | [4]; Ex. 26 solo 125 gai/ha, 20 DAT, SETVI | [4]; Ex. 26 solo, 31.25 gai/ha, 20 DAT, SETVI | [4]; Ex. 26 solo, 62.5 gai/ha, 20 DAT, SETVI | [4]; Ex. 26 solo, 125 gai/ha, 20 DAT, SETVI | [4]; SETVI, 20 DAT, solo Ex. 26 125 gai/ha | [5]; 20 DAT, solo Ex. 26 125 gai/ha | [5]; [12] | [5]; [13] | [5]; [15] | [5]; [16]
80%: [1]; Ex. 26 solo, 62.5 gai/ha | [5]; Ex. 26 solo 250 gai/ha, 21 DAT
50%: [6]; [9] | [6]; [12] | [6]; [14]
40%: [5]; 20 DAT, solo Ex. 26 15 gai/ha
0% and 30%: [2]; Ex. 26 solo 125 gai/ha, 20 DAT
10%: [4]; 20 DAT, Ex. 26 solo 125 gai/ha | [4]; SETVI, Ex. 26 solo 125 gai/ha, 20 DAT
85%: [1]; solo Ex. 26 62.5 gai/ha
75%: [7]; 20 DAT, solo Ex. 26 125 gai/ha | [8]; 20 DAT, ALOMY, Ex. 26 solo 125 gai/ha | [8]; 20 DAT, ALOMY, Ex. 26 solo 250 gai/ha
20%: [4]; Ex. 26 solo 125 gai/ha, 21 DAT, SETVI | [5]; 20 DAT, Ex. 26 solo 125 gai/ha
